Measurements published in US10179143B2, “Anti-viral azide containing compounds” (LIFE TECHNOLOGIES CORPORATION, priority 2010, dated 2019).

Assays:
[1] = test system: Nuclear-GFP BacMam 2.0 Virus; assay: Infectivity of PTM analog-labeled Nuclear-GFP BacMam 2.0 virus in U2-OS cells (nuclear-GFP expression); assay type: cell-based, baculovirus; details: BacMam virus labeled in Sf9 insect cells with 50 μM analog for 4 days; 20 or 50 uL virus on U2-OS cells overnight; FIG. 5
Excerpt: Inhibition of insect cell baculovirus infectivity with azido fatty acid analogs: The BacMam system uses a modified insect cell virus (baculovirus) as a vehicle to efficiently deliver and express genes in mammalian cells. A Nuclear-GFP BacMam 2.0 expression system (Invitrogen, C10602) was used as a model to determine if PTM analog labeling of the virus would affect mammalian cell infectivity. Viruses were labeled with various PTM analogs and used to infect mammalian cells. Infectivity was determined by the expression of nuclear-GFP, as viral entry into the cell is required for expression of GFP protein. […]
Characterization of BacMam virus production: To verify, quantitate, and normalize the amount of enriched viruses obtained from insect cell supernatants, samples of each virus were lysed in SDS sample preparation buffer (SPB), sonicated with a probe tip sonicator, and heated at 90C to completely dissolve the viral proteins. Viral protein concentrations of the lysates were then determined. […]
Mammalian cell infection protocol: To determine if the PTM analog-labeled viruses retain the ability to infect mammalian cells, 50,000 U2-OS cells (human osteosarcoma cell line) were plated onto a 6 well-chamber glass bottom plate. […] The following day cells were imaged on AMG EVOS fluorescence microscope at 10× or 20× magnification using both white light and GFP filters (FIG. 5). […]

HIV = assay: Luciferase reporter assay of infectivity of azide-labeled HIV on TZM/BI reporter cells; assay type: cell-based, HIVNL4-3; details: virus produced in CEMx174 cells spiked with the compound (fatty acids 50-100 μM, sugars 20-40 μM); normalized to p24; 12 hours on TZM/BI; single cycle replication system; FIGS. 3 and 4
Description: CEMx174 cells were transfected with HIVNL4-3 in a T-150 flask and the virus production was monitored by reverse transcriptase activity until peak virus production occurred (usually 7 to 9 days post transfection). Prior to transfection, the CEMx174 cells were spiked with the following azide-modified biomolecules: 15-azidopentadecanoic acid (50-100 μM), 12-azidododecanoic acid (50-100 μM), tetraacetylated N-azidoacetylgalactosamine (20-40 μM), and tetraacetylated N-azidoacetyl-D-mannosamine (20-40 μM).
Labeled virus was also obtained from the transfected cells. More specifically, virus-containing supernatants were collected and virus was purified through 20% sucrose as previously described (Graham, D.R. et al., Proteomics 2008, 8:4919-30). The purified virus was then mixed with the CLICK-IT® detection reagent, tetramethylrhodamine (TAMRA) alkyne and the CLICK-IT® Protein Reaction Buffer Kit (Invitrogen, Carlsbad, Calif.). Virus samples were run on a one-dimensional gel to reveal azide-labeled viral proteins (FIG. 2). […]
To examine the effect of the azide-modified biomolecules on the innate biology of the virus, the azide-labeled virus from the transfected cells was isolated and tested in cell infection studies. […] Viral infectivity was determined by measuring cellular luciferase activities with two different luciferase reagents.

Compound	nuclear-GFP expression in U2-OS cells (viral entry) [1]	impact on the infectivity of the virus (cellular luciferase activities) (HIV)
[N-]=[N+]=NCCCCCCCCCCCCCCC(=O)O [15-azidopentadecanoic acid]	no nuclear-GFP expression	–
[N-]=[N+]=NCCCCCCCCCCCC(=O)O [12-azidododecanoic acid]	no nuclear-GFP expression	profound impact on the infectivity of the virus
